Assay results: the NIST ThermoML archive (doi:10.1021/acs.jced.9b00752)
± gives the expanded uncertainty stated by the source.

Experiment: mn = molality of the nth substance listed, in mol/kg
Details: 100 kPa, Liquid, Vibrating tube method

N[C@@H](Cc1ccccc1)C(=O)O [L-phenylalanine] + O
mass density (273.65 K, m1 = 0.0036): 1000.05 ± 0.12 kg/m3 | mass density (273.65 K, m1 = 0.011): 1000.4 ± 0.12 kg/m3 | mass density (273.65 K, m1 = 0.0183): 1000.75 ± 0.12 kg/m3 | mass density (273.65 K, m1 = 0.033): 1001.44 ± 0.12 kg/m3 | mass density (273.65 K, m1 = 0.0443): 1002.02 ± 0.12 kg/m3 | mass density (273.65 K, m1 = 0.0536): 1002.42 ± 0.11 kg/m3 | mass density (273.65 K, m1 = 0.0623): 1002.84 ± 0.12 kg/m3 | mass density (273.65 K, m1 = 0.074): 1003.38 ± 0.12 kg/m3 | mass density (273.65 K, m1 = 0.0855): 1003.95 ± 0.12 kg/m3 | mass density (273.65 K, m1 = 0.0981): 1004.56 ± 0.12 kg/m3 | mass density (273.65 K, m1 = 0.1158): 1005.44 ± 0.12 kg/m3 | mass density (274.15 K, m1 = 0.0036): 1000.08 ± 0.12 kg/m3 | mass density (274.15 K, m1 = 0.011): 1000.42 ± 0.12 kg/m3 | mass density (274.15 K, m1 = 0.0183): 1000.77 ± 0.12 kg/m3 | mass density (274.15 K, m1 = 0.033): 1001.46 ± 0.12 kg/m3 | mass density (274.15 K, m1 = 0.0443): 1002.04 ± 0.12 kg/m3 | mass density (274.15 K, m1 = 0.0536): 1002.44 ± 0.11 kg/m3 | mass density (274.15 K, m1 = 0.0623): 1002.86 ± 0.12 kg/m3 | mass density (274.15 K, m1 = 0.074): 1003.4 ± 0.12 kg/m3 | mass density (274.15 K, m1 = 0.0855): 1003.96 ± 0.12 kg/m3 | mass density (274.15 K, m1 = 0.0981): 1004.58 ± 0.12 kg/m3 | mass density (274.15 K, m1 = 0.1158): 1005.46 ± 0.12 kg/m3 | mass density (274.65 K, m1 = 0.0036): 1000.1 ± 0.12 kg/m3 | mass density (274.65 K, m1 = 0.011): 1000.45 ± 0.12 kg/m3 | mass density (274.65 K, m1 = 0.0183): 1000.79 ± 0.12 kg/m3 | mass density (274.65 K, m1 = 0.033): 1001.48 ± 0.12 kg/m3 | mass density (274.65 K, m1 = 0.0443): 1002.06 ± 0.12 kg/m3 | mass density (274.65 K, m1 = 0.0536): 1002.46 ± 0.11 kg/m3 | mass density (274.65 K, m1 = 0.0623): 1002.87 ± 0.12 kg/m3 | mass density (274.65 K, m1 = 0.074): 1003.42 ± 0.12 kg/m3 | mass density (274.65 K, m1 = 0.0855): 1003.98 ± 0.12 kg/m3 | mass density (274.65 K, m1 = 0.0981): 1004.59 ± 0.12 kg/m3 | mass density (274.65 K, m1 = 0.1158): 1005.47 ± 0.12 kg/m3 | mass density (275.15 K, m1 = 0.0036): 1000.12 ± 0.12 kg/m3 | mass density (275.15 K, m1 = 0.011): 1000.46 ± 0.12 kg/m3 | mass density (275.15 K, m1 = 0.0183): 1000.81 ± 0.12 kg/m3 | mass density (275.15 K, m1 = 0.033): 1001.49 ± 0.12 kg/m3 | mass density (275.15 K, m1 = 0.0443): 1002.07 ± 0.12 kg/m3 | mass density (275.15 K, m1 = 0.0536): 1002.47 ± 0.11 kg/m3 | mass density (275.15 K, m1 = 0.0623): 1002.88 ± 0.12 kg/m3 | mass density (275.15 K, m1 = 0.074): 1003.43 ± 0.12 kg/m3 | mass density (275.15 K, m1 = 0.0855): 1003.99 ± 0.12 kg/m3 | mass density (275.15 K, m1 = 0.0981): 1004.6 ± 0.12 kg/m3 | mass density (275.15 K, m1 = 0.1158): 1005.47 ± 0.12 kg/m3 | mass density (275.65 K, m1 = 0.0036): 1000.13 ± 0.12 kg/m3 | mass density (275.65 K, m1 = 0.011): 1000.48 ± 0.12 kg/m3 | mass density (275.65 K, m1 = 0.0183): 1000.82 ± 0.11 kg/m3 | mass density (275.65 K, m1 = 0.033): 1001.5 ± 0.12 kg/m3 | mass density (275.65 K, m1 = 0.0443): 1002.08 ± 0.12 kg/m3 | mass density (275.65 K, m1 = 0.0536): 1002.48 ± 0.11 kg/m3 | mass density (275.65 K, m1 = 0.0623): 1002.89 ± 0.12 kg/m3 | mass density (275.65 K, m1 = 0.074): 1003.43 ± 0.12 kg/m3 | mass density (275.65 K, m1 = 0.0855): 1003.99 ± 0.12 kg/m3 | mass density (275.65 K, m1 = 0.0981): 1004.6 ± 0.12 kg/m3 | mass density (275.65 K, m1 = 0.1158): 1005.47 ± 0.12 kg/m3 | mass density (276.15 K, m1 = 0.0036): 1000.14 ± 0.12 kg/m3 | mass density (276.15 K, m1 = 0.011): 1000.49 ± 0.12 kg/m3 | mass density (276.15 K, m1 = 0.0183): 1000.83 ± 0.11 kg/m3 | mass density (276.15 K, m1 = 0.033): 1001.51 ± 0.12 kg/m3 | mass density (276.15 K, m1 = 0.0443): 1002.09 ± 0.12 kg/m3 | mass density (276.15 K, m1 = 0.0536): 1002.48 ± 0.11 kg/m3 | mass density (276.15 K, m1 = 0.0623): 1002.89 ± 0.12 kg/m3 | mass density (276.15 K, m1 = 0.074): 1003.43 ± 0.12 kg/m3 | mass density (276.15 K, m1 = 0.0855): 1004 ± 0.12 kg/m3 | mass density (276.15 K, m1 = 0.0981): 1004.6 ± 0.12 kg/m3 | mass density (276.15 K, m1 = 0.1158): 1005.47 ± 0.12 kg/m3 | mass density (276.65 K, m1 = 0.0036): 1000.14 ± 0.12 kg/m3 | mass density (276.65 K, m1 = 0.011): 1000.49 ± 0.12 kg/m3 | mass density (276.65 K, m1 = 0.0183): 1000.83 ± 0.12 kg/m3 | mass density (276.65 K, m1 = 0.033): 1001.51 ± 0.12 kg/m3 | mass density (276.65 K, m1 = 0.0443): 1002.09 ± 0.12 kg/m3 | mass density (276.65 K, m1 = 0.0536): 1002.48 ± 0.11 kg/m3 | mass density (276.65 K, m1 = 0.0623): 1002.89 ± 0.12 kg/m3 | mass density (276.65 K, m1 = 0.074): 1003.43 ± 0.12 kg/m3 | mass density (276.65 K, m1 = 0.0855): 1003.99 ± 0.12 kg/m3 | mass density (276.65 K, m1 = 0.0981): 1004.59 ± 0.12 kg/m3 | mass density (276.65 K, m1 = 0.1158): 1005.46 ± 0.12 kg/m3 | mass density (277.15 K, m1 = 0.0036): 1000.14 ± 0.12 kg/m3 | mass density (277.15 K, m1 = 0.011): 1000.49 ± 0.11 kg/m3 | mass density (277.15 K, m1 = 0.0183): 1000.83 ± 0.11 kg/m3 | mass density (277.15 K, m1 = 0.033): 1001.51 ± 0.12 kg/m3 | mass density (277.15 K, m1 = 0.0443): 1002.09 ± 0.12 kg/m3 | mass density (277.15 K, m1 = 0.0536): 1002.47 ± 0.11 kg/m3 | mass density (277.15 K, m1 = 0.0623): 1002.89 ± 0.12 kg/m3 | mass density (277.15 K, m1 = 0.074): 1003.43 ± 0.12 kg/m3 | mass density (277.15 K, m1 = 0.0855): 1003.98 ± 0.12 kg/m3 | mass density (277.15 K, m1 = 0.0981): 1004.59 ± 0.12 kg/m3 | mass density (277.15 K, m1 = 0.1158): 1005.45 ± 0.12 kg/m3 | mass density (277.65 K, m1 = 0.0036): 1000.14 ± 0.12 kg/m3 | mass density (277.65 K, m1 = 0.011): 1000.49 ± 0.11 kg/m3 | mass density (277.65 K, m1 = 0.0183): 1000.83 ± 0.11 kg/m3 | mass density (277.65 K, m1 = 0.033): 1001.5 ± 0.12 kg/m3 | mass density (277.65 K, m1 = 0.0443): 1002.08 ± 0.12 kg/m3 | mass density (277.65 K, m1 = 0.0536): 1002.47 ± 0.11 kg/m3 | mass density (277.65 K, m1 = 0.0623): 1002.88 ± 0.12 kg/m3 | mass density (277.65 K, m1 = 0.074): 1003.42 ± 0.12 kg/m3 | mass density (277.65 K, m1 = 0.0855): 1003.97 ± 0.12 kg/m3 | mass density (277.65 K, m1 = 0.0981): 1004.57 ± 0.12 kg/m3 | mass density (277.65 K, m1 = 0.1158): 1005.44 ± 0.12 kg/m3 | mass density (278.15 K, m1 = 0.0036): 1000.13 ± 0.11 kg/m3 | mass density (278.15 K, m1 = 0.011): 1000.48 ± 0.11 kg/m3 | mass density (278.15 K, m1 = 0.0183): 1000.82 ± 0.11 kg/m3 | mass density (278.15 K, m1 = 0.033): 1001.49 ± 0.12 kg/m3 | mass density (278.15 K, m1 = 0.0443): 1002.07 ± 0.12 kg/m3 | mass density (278.15 K, m1 = 0.0536): 1002.46 ± 0.11 kg/m3 | mass density (278.15 K, m1 = 0.0623): 1002.87 ± 0.12 kg/m3 | mass density (278.15 K, m1 = 0.074): 1003.41 ± 0.12 kg/m3 | mass density (278.15 K, m1 = 0.0855): 1003.96 ± 0.12 kg/m3 | mass density (278.15 K, m1 = 0.0981): 1004.56 ± 0.12 kg/m3 | mass density (278.15 K, m1 = 0.1158): 1005.42 ± 0.12 kg/m3
